Test results: patent US6025333A, “Treatment of CNS tumors with metalloprotease inhibitors” (Erziehungsdirektion of the Canton Zurich, priority 1995, dated 2000)
pIC50: −log10 of the molar value. Where two headings read alike, the source gives them in different places. Peptide text beside a SMILES is read from it. * marks the point of attachment. Cbz = O=C(OCc1ccccc1)*

Key:
C6 cells [1] = assay: C6 cell spreading on PLYS or CNS myelin with protease inhibitors; assay type: cell-based, rat; settings: for activity at 300 µM: C6, 2.5 h
Procedure: Rat C6, mouse NIH 3T3 and B16 cells were cultured in Dulbecco's modified Eagle's medium (DMEM) supplemented with 10% fetal calf serum (FCS), usually to maximally 70-80% confluency. Cells were harvested with a short trypsin treatment (0.1% in Ca^2+ /Mg^2+ -free Hank's medium for 90 seconds) stopped by addition of FCS in excess, collected by centrifugation. Cells were resuspended in either DMEM/FCS or defined serum-free medium (MEM) and used for experiments. Dissociated rat CNS glial cells were prepared starting from optic nerves of 6-7 days old Lewis rats as described in Section 6.1.1, supra and plated into poly-D-lysine (PLYS) coated wells (100 mm^2, 100 μl medium) at a density of 20,000 cells per well. The culture medium was an enriched L15 medium with 5% rat serum, penicillin and streptomycin. C6, 3T3 and B16 cells were added to 2 day old cultures at a concentration of 30,000 cells per well, incubated for two hours and fixed with warm 4% formalin in phosphate buffer. Inhibitory oligodendrocytes were identified by double labelling using the specific antibodies O1 and O4 (see Section 6.1.3, supra).
(§1) Myelin from rat spinal cord (CNS) or sciatic nerve (PNS) purified on a discontinuous sucrose gradient as described in Section 6.1.5., was dried overnight onto PLYS coated wells (20 μg protein/well of 100 mm^2 surface). Unbound membranes were removed by three washes with Ca^2+ /Mg^2+ -free Hank's solution. Myelin coated wells were immediately used in substrate testing assays by the addition of 9,000 cells (C6, 3T3, or B16) per cm^2. Alternatively, we used extracted CNS myelin protein, or SDS-PAGE purified 35 and 250 kD inhibitory proteins reconstituted in liposomes (see Section 7.1.5, supra). Experiments were scored at different time points using a phase contrast microscope equipped with a photocamera. Quantifications were done using a surface integration program; three arbitrary fields were photographed for each well at a magnitude of 80×, at least 25 cells per picture were measured. Each point represents the mean of at least 3 wells±SEM. Results are expressed as μ^2 of projected cell surface, or as degree, which was calculated by subtracting from the projected surface value of a spreading cell, the surface value of a completely spheric cell.

C6 cells [2] = assay: C6 cell attachment and spreading on rat cerebellar frozen sections; assay type: cell-based; settings: 1,10-phenanthroline 50, 100, 200 and 300 μM; cbz-tyr-tyr 100 μM
Procedure: Adult rat cerebellum frozen sections were prepared and dried on glass coverslips. 70,000 C6, 3T3, or B16 cells in 100 μl were added to each well containing slices previously rinsed with cold DMEM/FCS. Cultures were incubated for 2 days at 37° C. Cultures were then fixed and stained with cresyl violet. Three to four cerebellum slices were used per point per experiment, with each experiment being repeated at least 2 times.

C6 cells [3] = assay: C6 cell infiltration into optic nerve explants; assay type: cell-based, rat; settings: nerves injected with 4 μl of 3 mM solution; medium 0.5 mM peptide; 14 days
Procedure: Optic nerve and sciatic nerve explants were prepared as described (Schwab and Thoenen, 1985, J. Neurosci. 5:2415-2423). Briefly, the nerves were rapidly dissected from about 8 week old male rats, cleaned from the meninges, 3 times frozen and thawed using liquid nitrogen, and placed under a teflon ring (diameter 13 mm, thickness 1 mm) sealed to a culture dish with silicon grease. Two chambers connected only by the explants were in this way obtained. 300,000 C6, 3T3 or B16 cells were plated in the inner chamber in DMEM/FCS and incubated for 5 to 20 days. The medium was changed every other day. Cultures were fixed overnight with 4% formalin. The nerve explants were mounted with Tissue-Tek, 10 to 15 μm sections were cut in a cryostate and collected on gelatine coated cover slips. After drying at room temperature overnight, the sections were stained in 0.75% cresyl violet, and evaluated. The infiltrated cells were counted for each 0.1 mm of the explants, starting from the tip where cells were added. Due to the 15 day incubation, the explants were often different in diameter. Therefore, only the central part of the nerves (0.25 mm) were considered, since only this part of the explants presented a good histological quality. Inhibition experiments were performed with nerve explants previously injected from both sides with 2 μl of 3 mM cbz-tyr-tyr or cbz-ala-phe solutions.

C6 cells [4] = assay: C6 cell spreading on CNS myelin protein liposomes, antibody and/or 1,10-phenanthroline; assay type: cell-based, rat; settings: 0.3 mM 1,10-phenanthroline
Procedure: Substrates were tested as described in Section 7.1.2 supra). Myelin fractions or liposomes in medium A were dried onto the wells of polylysine-coated Greiner dishes (Greiner, Murtingen, FRG). […] When substrates were tested in the presence of antibody, bound substrates were incubated in the presence of undiluted hybridoma supernatants or in the presence of 1:30 dilutions (in Hank's medium) of antisera. After 15 minutes at 37° C., four-fifths of the antibody-containing medium was removed and substituted with cell-containing medium. An analogous preincubation procedure was used in experiments aimed at testing HBO nonpermissiveness. 3T3 experiments were usually scored after a culture period of 1 hour, whereas SCG neurons were allowed to grow processes for 24 hours in culture. When 3T3 cells were preincubated with hybridoma supernatant, incubations were performed in gently agitated suspensions for a period of 15 minutes at room temperature. Cells were then sedimented, resuspended in culture medium, and added to substrate-adsorbed Greiner dish wells. 3T3 cells were added at a density of 30,000 cells per cm^2, and SCG neurons were added at a density of 20,000 cells per cm^2.
as §1, with “Myelin coated wells were immediately used in substrate testing assays by the addition of 9,000 cells (C6, 3T3, or B16) per cm^2. Alternatively, we used extracted CNS myelin protein, or SDS-PAGE purified 35 and 250 kD inhibitory proteins reconstituted in liposomes (see Section 7.1.5, supra).” left out, “Each point represents the mean of at least 3 wells±SEM.” left out

3T3 cells = assay: Treatment of CNS myelin with C6 plasma membranes, then 3T3 spreading and 3H-thymidine incorporation; assay type: cell-based, mouse
Procedure: as §1
C6 cells grown to 80% confluency were washed twice with Hank's medium, and harvested in 20 ml 8.5% sucrose, 50 mM NaCl, 10 mM Tris buffer, pH 7.4, using a rubber policeman. After mechanical homogenization through a series of needles of decreasing size, a low purity plasma membrane fraction was obtained by centrifugation (5 minutes at 3000× g, 10 minutes at 8000× g, and then 2 hours at 100,000× g). A higher purity fraction was isolated by loading the material on a discontinuous sucrose gradient, containing 50 mM NaCl, 10 mM Tris, pH 7.4 (Quigley, 1976, J. Cell Biol. 71: 472-486). 20-40% sucrose interphase (C6 plasma membranes fraction) and 40-60% sucrose interphase (C6 mitochondrial fraction) were collected, washed in Hank's medium and resuspended in MEM.
CNS myelin coated PLYS wells were prepared as described in the previous section, but instead of being immediately tested as substrate, they were first incubated with 50 μl of C6 plasma membranes (containing 0.8 mg protein/ml MEM) at 37° for 30 minutes. Dishes were then rinsed twice with Hank's medium and immediately used as substrates for 3T3 cells. In some experiments, protease blockers were added to the membranes using 10 times concentrated solutions.

SMILES | Spreading on: PLYS (% of control on PLYS) (C6 cells [1]; inhibitor 0.3 mM, 150 minutes) | Spreading on: CNS (% of control on PLYS) (C6 cells [1]; inhibitor 0.3 mM, CNS myelin, 150 minutes) | Inhibition on CNS (%) (C6 cells [1]; inhibitor 0.3 mM, PLYS value minus CNS myelin value) | distribution and behavior of C6 cells on white matter of cerebellar frozen sections (C6 cells [2]) | C6 cell infiltration into optic nerve explants (C6 cells [3]) | inhibition of C6 cell spreading on CNS myelin (C6 cells [1]) | concentrations exerting a general toxic effect on all substrates (C6 cells [1]; C6 cells, 3 hours, FIG. 22) | activity at 300 µM (C6 cells [1]; Rattus norvegicus, inhibitor 0.3 mM, 150 minutes, read-out: Spreading on: PLYS (% of control on PLYS)) [%] | activity at 300 µM (C6 cells [1]; Rattus norvegicus, inhibitor 0.3 mM, CNS myelin, 150 minutes, read-out: Spreading on: CNS (% of control on PLYS)) [%] | inhibition at 300 µM (C6 cells [1]; Rattus norvegicus, C6, inhibitor 0.3 mM, PLYS value minus CNS myelin value) [%] | pIC50 (C6 cells [1]; Rattus norvegicus, C6 cells on CNS myelin, 3 hours (FIG. 22), read-out: Half maximal inhibition of C6 spreading on CNS myelin (IC50)) | effect on C6 cell spreading on PLYS, glass and PNS myelin (C6 cells [1]; concentrations up to 0.5 mM) | spreading value on: CNS lipos. (C6 cells [4]; substrate preadsorbed with the named antibody or none, 150 minutes) [μm^2 10^3] | spreading value on: PLYS (C6 cells [4]; with the named antibody or none, 150 minutes) [μm^2 10^3] | % inhibition on CNS lipos. (C6 cells [4]; with the named antibody or none, relates to PLYS) [%] | 3T3 Cell Spreading (%) (3T3 cells; 3T3 on CNS myelin, alone or preincubated with C6 PM without/with the named inhibitor, 150 minutes, PLYS = 100) | 3H-Thymidine Incorporation (%) (3T3 cells; 3T3 on CNS myelin, alone or preincubated with C6 PM without/with the named inhibitor, 20 hours, PLYS = 100) | effect on the C6 plasma membrane effect (neutralization of CNS myelin inhibitory activity) (3T3 cells; blockers added to C6 plasma membranes)
O=C(N[C@@H](Cc1ccc(O)cc1)C(=O)N[C@@H](Cc1ccc(O)cc1)C(=O)O)OCc1ccccc1 [cbz-tyr-tyr, carbobenzoxy-tryosine-tyrosine] (Cbz-Tyr-Tyr-OH) | 101 % of control on PLYS | 56 % of control on PLYS | 45 | dramatically changed the distribution and behavior of C6 cells on the white matter areas | inhibited C6 cell infiltration in all the 8 nerves examined | – | – | – | – | – | – | – | – | – | – | – | – | –
c1cnc2c(c1)ccc1cccnc12 [1,10-phenanthroline] | – | – | – | dramatically changed the distribution and behavior of C6 cells on the white matter areas | – | up to 67% | above 0.5 mM | 97 | 30 | 67 | 3.70 | did not impair C6 cell spreading | 1.35 | 2.49 | 46 | 17 | 50 | completely blocked
